Source: patent publication US6472348B1, “Pyridone derivatives and herbicides” (Kumiai Chemical Industry Co., Ltd., priority 1996, dated 2002)

What was measured:
Assay type in all cases: in vivo
[1] = test system: barnyardgrass (Ec); assay: Test Example 2: herbicidal effects by upland field soil treatment; conditions: 100 g of the active ingredient per 10 ares;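 further: grade of growth control; 5 = at least 90%; 4 = 70 to 90%; 3 = 50 to 70%; 2 = 30 to 50%; 1 = 10 to 30%; 0 = under 10%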
Text: (§1) (Test on Herbicidal Effects by Upland Field Soil Treatment)

[2] = test system: slender amaranth (Am); assay: as above; conditions: 100 g of the active ingredient per 10 ares;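 further: grade of growth control; 5 = at least 90%; 4 = 70 to 90%; 3 = 50 to 70%; 2 = 30 to 50%; 1 = 10 to 30%; 0 = under 10%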
Text: as §1

[3] = test system: Digitaria ciliaris (Di); assay: as above; conditions: 100 g of the active ingredient per 10 ares;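 further: grade of growth control; 5 = at least 90%; 4 = 70 to 90%; 3 = 50 to 70%; 2 = 30 to 50%; 1 = 10 to 30%; 0 = under 10%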
Text: as §1

[4] = test system: rice flatsedge (Ci); assay: as above; conditions: 100 g of the active ingredient per 10 ares;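 further: grade of growth control; 5 = at least 90%; 4 = 70 to 90%; 3 = 50 to 70%; 2 = 30 to 50%; 1 = 10 to 30%; 0 = under 10%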
Text: as §1

[5] = test system: pale smartweed (Po); assay: as above; conditions: 100 g of the active ingredient per 10 ares
Text: as §1

[6] = test system: common lambsquarters (Ch); assay: as above; conditions: 100 g of the active ingredient per 10 ares
Text: as §1

[7] = test system: China jute (Ab); assay: Test Example 7: crop plant selectivity by upland field soil treatment (corn), herbicidal effects; set-up: scale not given here; conditions: 21st day after application
Method in brief: (§2)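 Corn and weeds (green foxtail, pale smartweed, slender amaranth, common lambsquarters, China jute) sown in sand-filled pots, covered with soil and treated by soil application. Grown in a greenhouse; herbicidal effect and crop phytotoxicity scored on day 21 after application using a fixed rating scale.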

[8] = test system: green foxtail (Se); assay: as above; set-up: scale not given here; conditions: 21st day after application
Method in brief: as §2

[9] = test system: pale smartweed (Po); assay: as above; set-up: scale not given here; conditions: 21st day after application
Method in brief: as §2

[10] = test system: common lambsquarters (Ch); assay: as above; set-up: scale not given here; conditions: 21st day after application
Method in brief: as §2

[11] = 21st day after the application, index 0-5 of Table 47
[12] = evaluated on the 21st day after application

| SMILES | Herbicidal effects Ec [1, 11] | Herbicidal effects Am [2, 11] | Herbicidal effects Di [3, 11] | Herbicidal effects Ci [4, 11] | Herbicidal effects Po [5, 11] | Herbicidal effects Ch [6, 11] | Herbicidal effects Ab ([7]; dose 6.3 g ai/10a) | Herbicidal effects Se ([8]; dose 6.3 g ai/10a) | Herbicidal effects Po ([9]; dose 6.3 g ai/10a) | Herbicidal effects Ch ([10]; dose 6.3 g ai/10a) | Herbicidal effects Ec [1, 12] | Herbicidal effects Am [2, 12] | Herbicidal effects Di [3, 12] | Herbicidal effects Ci [4, 12] | Herbicidal effects Po [5, 12] | Herbicidal effects Ch [6, 12] | Herbicidal effects Ab ([7]; dose 1.6 g ai/10a) | Herbicidal effects Se ([8]; dose 1.6 g ai/10a) | Herbicidal effects Po ([9]; dose 1.6 g ai/10a) | Herbicidal effects Ch ([10]; dose 1.6 g ai/10a) |
| --- | --- | --- | --- | --- | --- | --- | --- | --- | --- | --- | --- | --- | --- | --- | --- | --- | --- | --- | --- | --- |
| Cn1c(C(F)(F)F)ccc(-c2cc(C#N)c(Cl)cc2F)c1=O [Compound No. 1-119, 3-(4-chloro-5-cyano-2-fluorophenyl)-1-methyl-6-trifluoromethyl-2(1H)-pyridone] | 5 | 5 | 5 | 5 | 5 | 5 | 5 | 5 | 5 | 5 | – | – | – | – | – | – | – | – | – | – |
| CCCC(=O)c1cc(-c2ccc(C(F)(F)F)n(C)c2=O)c(F)cc1Cl [Compound No. 1-194, 3-[4-chloro-2-fluoro-5-(1-oxobutyl)phenyl]-1-methyl-6-trifluoromethyl-2(1H)-pyridone] | – | – | – | – | – | – | 5 | 5 | 5 | 5 | 5 | 5 | 5 | 5 | 5 | 5 | – | – | – | – |
| C#CCn1c(=O)sc2cc(F)c(-c3ccc(C(F)(F)F)n(C)c3=O)cc21 [Compound No. 3-1, 3-[6-fluoro-3-(2-propynyl)-benzothiazolin-2-on-5-yl]-1-methyl-6-trifluoromethyl-2(1H)-pyridone] | – | – | – | – | – | – | 5 | 5 | 5 | 5 | 5 | 5 | 5 | 5 | 5 | 5 | 5 | 5 | 5 | 5 |
| COCc1cc2c(-c3ccc(C(F)(F)F)n(C)c3=O)c(F)cc(Cl)c2o1 [Compound No. 4-4, 3-(7-chloro-5-fluoro-2-methoxymethylbenzofuran-4-yl)-1-methyl-6-trifluoromethyl-2-(1H)-pyridone] | – | – | – | – | – | – | 5 | 5 | 5 | 5 | 5 | 5 | 5 | 5 | 5 | 5 | 5 | 5 | 5 | 5 |
| Cn1c(C(F)(F)F)ccc(-c2c(F)cc(Cl)c3oc(CO)cc23)c1=O [Compound No. 4-5, 3-(7-chloro-5-fluoro-2-hydroxymethylbenzofuran-4-yl)-1-methyl-6-trifluoromethyl-2-(1H)-pyridone] | – | – | – | – | – | – | 5 | 5 | 5 | 5 | 5 | 5 | 5 | 5 | 5 | 5 | – | – | – | – |
| Cn1c(C(F)(F)F)ccc(-c2c(F)cc(Cl)c3occc23)c1=O [Compound No. 4-28, 3-(7-chloro-5-fluorobenzofuran-4-yl)-1-methyl-6-trifluoromethyl-2-(1H)-pyridone] | – | – | – | – | – | – | – | – | – | – | 4 | 5 | 5 | 5 | 5 | 5 | 5 | 5 | 5 | 5 |
